Consider 10 molecules from publication PMC5065787 (Bioorganic & medicinal chemistry, 2016).

In one data set the test system is rat LOX ortholog. Particulars: cited from earlier work.
For another data set, the system named is dog LOX ortholog. Conditions: cited from earlier work.
For data set [1] the following is noted: cited from earlier work.
In the next data set the test system is h15-LOX-1. Particulars: cited from earlier work.
In a further data set the target is T1, h15-LOX-1 F414I (Homo sapiens, UniProt P16050, F414I).
T1 sequence (P16050 1-662 F414I): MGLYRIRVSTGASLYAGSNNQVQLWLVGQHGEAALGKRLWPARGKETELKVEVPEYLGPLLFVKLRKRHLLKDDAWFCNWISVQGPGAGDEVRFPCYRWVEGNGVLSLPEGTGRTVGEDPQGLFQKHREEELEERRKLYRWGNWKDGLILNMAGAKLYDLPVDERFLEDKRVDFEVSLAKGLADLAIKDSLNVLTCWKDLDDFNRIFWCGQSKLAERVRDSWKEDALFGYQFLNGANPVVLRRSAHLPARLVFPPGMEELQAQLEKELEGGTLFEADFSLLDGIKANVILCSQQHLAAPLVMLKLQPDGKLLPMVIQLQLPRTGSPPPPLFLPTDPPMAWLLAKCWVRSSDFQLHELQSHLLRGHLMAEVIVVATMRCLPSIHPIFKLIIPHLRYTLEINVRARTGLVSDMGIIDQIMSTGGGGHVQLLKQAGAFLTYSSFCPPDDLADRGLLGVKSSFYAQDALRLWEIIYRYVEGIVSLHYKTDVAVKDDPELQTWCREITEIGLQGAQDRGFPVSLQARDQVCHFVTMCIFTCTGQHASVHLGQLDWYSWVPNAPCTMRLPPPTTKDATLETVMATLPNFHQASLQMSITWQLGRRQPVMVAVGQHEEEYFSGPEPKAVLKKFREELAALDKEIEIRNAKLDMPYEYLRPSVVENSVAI
Put plainly: Steady-state substrate kinetics, F414I. It is filed as biochemical. Particulars: error in parentheses.

Another data set has as its target T2, WT h15-LOX-1 (Homo sapiens, UniProt P16050).
T2 sequence (P16050 1-662): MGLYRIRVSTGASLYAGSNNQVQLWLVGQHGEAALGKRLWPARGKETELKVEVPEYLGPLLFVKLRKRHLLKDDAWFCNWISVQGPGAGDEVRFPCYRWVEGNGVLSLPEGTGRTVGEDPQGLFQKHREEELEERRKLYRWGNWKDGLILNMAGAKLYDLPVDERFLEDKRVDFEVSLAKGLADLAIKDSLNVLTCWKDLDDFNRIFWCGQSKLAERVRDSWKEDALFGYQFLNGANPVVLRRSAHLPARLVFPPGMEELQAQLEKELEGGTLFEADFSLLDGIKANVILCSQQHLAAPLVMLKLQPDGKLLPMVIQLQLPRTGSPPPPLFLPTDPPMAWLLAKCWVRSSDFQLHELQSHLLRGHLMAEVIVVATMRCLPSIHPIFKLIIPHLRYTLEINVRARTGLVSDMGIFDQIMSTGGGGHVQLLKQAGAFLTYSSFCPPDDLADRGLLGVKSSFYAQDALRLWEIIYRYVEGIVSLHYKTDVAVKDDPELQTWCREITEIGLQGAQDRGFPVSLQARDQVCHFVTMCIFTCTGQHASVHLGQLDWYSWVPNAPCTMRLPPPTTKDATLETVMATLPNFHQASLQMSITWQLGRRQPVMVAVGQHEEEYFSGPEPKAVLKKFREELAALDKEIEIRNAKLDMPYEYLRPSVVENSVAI
Description: Steady-state substrate kinetics, WT. The data set is classed as biochemical. Conditions: error in parentheses.

For data set [2] the following is noted: possibly due to cellular lability of the ester moiety; cited from earlier work.
The conditions of data set [3]: cited from earlier work. This is another data set of the same source.
Substrate in data set [4]: CCCCC/C=C\C/C=C\C/C=C\C/C=C\CCCC(=O)O
Description: Steady-state substrate kinetics, Q547L. It is filed as biochemical, human. Conditions: other: Q547L; error in parentheses; unit inferred; pH 7.5.

Substrate in data set [5]: CCCCC/C=C\C/C=C\C/C=C\C/C=C\CCCC(=O)O
Put plainly: Steady-state substrate kinetics, F414I. Particulars: other: F414I; error in parentheses; unit inferred; pH 7.5. The data set is classed as biochemical, human.

Substrate in data set [6]: CCCCC/C=C\C/C=C\C/C=C\C/C=C\CCCC(=O)O
Description: Steady-state substrate kinetics, E356Q. Particulars: other: E356Q; error in parentheses; unit inferred; pH 7.5. The data set is classed as biochemical, human.

Substrate in data set [7]: CCCCC/C=C\C/C=C\C/C=C\C/C=C\CCCC(=O)O
Put plainly: Steady-state substrate kinetics, F414W. It is filed as biochemical, human. Particulars: other: F414W; error in parentheses; unit inferred; pH 7.5.

Substrate in data set [8]: CCCCC/C=C\C/C=C\C/C=C\C/C=C\CCCC(=O)O
Put plainly: Steady-state substrate kinetics, L407A. Particulars: other: L407A; error in parentheses; unit inferred; pH 7.5. The data set is classed as biochemical, human.

On to `O=C(Nc1ccc(F)cc1Cl)c1c[nH]nn1` [BLX-2477, N-(2-chloro-4-fluorophenyl)triazole-4-carboxamide], for which, in the data set on rat LOX ortholog, the “potency against rat LOX ortholog” value is given as “not potent”. Also, the “potency against dog LOX ortholog” value in the data set with dog LOX ortholog is reported as “not potent”. Besides, the “adverse off-target effects in mini-pigs” value in data set [1] is listed as “adverse off-target effects”. Further, in the data set with h15-LOX-1, the “potency against h15-LOX-1” value is 99 nM.

A word on the Km: it is the concentration of substrate that gives half-maximal velocity. As for `CCCCC/C=C\C/C=C\CCCCCCCC(=O)O` [LA, linoleic acid], the kcat is 1.6 (0.03) on h15-LOX-1 F414I (no unit in table (sec^−1)) and 11 (0.4) on WT h15-LOX-1 (no unit in table (sec^−1)). The Km at h15-LOX-1 F414I (unit inferred) is 6.1 µM; at WT h15-LOX-1 (substrate 1-20 µM, unit inferred) it was 7.7 µM. Take `O=C(OCC#CCSc1nnc(-c2cccc3ccccc23)o1)c1cccs1` [ML094, 4-(5-(Naphthalen-1-yl)-1,3,4-oxadiazol-2-ylthio)but-2-ynylthiophene-2-carboxylate]: the activity in vivo result in data set [2] was “no activity”. Regarding `CNc1oc(-c2cccc3ccccc23)nc1C#N` [ML351, 5-(methylamino)-2-(naphthalene-1-yl)oxazole-4-carbonitrile], in data set [3], the “in vivo activity in mice” value is reported as “exhibits in vivo activity”.

Take `CCCCCc1ccc(S(=O)(=O)NCCc2c(-c3ccc(C(F)(F)F)cc3)[nH]c3ccccc23)cc1` [tryptamine sulfonamide]: the “potency against h15-LOX-1” value in the data set with h15-LOX-1 is 21 nM.

B1: h15-LOX-1 Q547L (Homo sapiens; Q547L) (protein)
chain: MGLYRIRVSTGASLYAGSNNQVQLWLVGQHGEAALGKRLWPARGKETELKVEVPEYLGPLLFVKLRKRHLLKDDAWFCNWISVQGPGAGDEVRFPCYRWVEGNGVLSLPEGTGRTVGEDPQGLFQKHREEELEERRKLYRWGNWKDGLILNMAGAKLYDLPVDERFLEDKRVDFEVSLAKGLADLAIKDSLNVLTCWKDLDDFNRIFWCGQSKLAERVRDSWKEDALFGYQFLNGANPVVLRRSAHLPARLVFPPGMEELQAQLEKELEGGTLFEADFSLLDGIKANVILCSQQHLAAPLVMLKLQPDGKLLPMVIQLQLPRTGSPPPPLFLPTDPPMAWLLAKCWVRSSDFQLHELQSHLLRGHLMAEVIVVATMRCLPSIHPIFKLIIPHLRYTLEINVRARTGLVSDMGIFDQIMSTGGGGHVQLLKQAGAFLTYSSFCPPDDLADRGLLGVKSSFYAQDALRLWEIIYRYVEGIVSLHYKTDVAVKDDPELQTWCREITEIGLQGAQDRGFPVSLQARDQVCHFVTMCIFTCTGQHASVHLGLLDWYSWVPNAPCTMRLPPPTTKDATLETVMATLPNFHQASLQMSITWQLGRRQPVMVAVGQHEEEYFSGPEPKAVLKKFREELAALDKEIEIRNAKLDMPYEYLRPSVVENSVAI
Consider B1, for which the Km in data set [4] was determined as 11 µM.

B2: h15-LOX-1 F414I (Homo sapiens; F414I) (protein)
chain: MGLYRIRVSTGASLYAGSNNQVQLWLVGQHGEAALGKRLWPARGKETELKVEVPEYLGPLLFVKLRKRHLLKDDAWFCNWISVQGPGAGDEVRFPCYRWVEGNGVLSLPEGTGRTVGEDPQGLFQKHREEELEERRKLYRWGNWKDGLILNMAGAKLYDLPVDERFLEDKRVDFEVSLAKGLADLAIKDSLNVLTCWKDLDDFNRIFWCGQSKLAERVRDSWKEDALFGYQFLNGANPVVLRRSAHLPARLVFPPGMEELQAQLEKELEGGTLFEADFSLLDGIKANVILCSQQHLAAPLVMLKLQPDGKLLPMVIQLQLPRTGSPPPPLFLPTDPPMAWLLAKCWVRSSDFQLHELQSHLLRGHLMAEVIVVATMRCLPSIHPIFKLIIPHLRYTLEINVRARTGLVSDMGIIDQIMSTGGGGHVQLLKQAGAFLTYSSFCPPDDLADRGLLGVKSSFYAQDALRLWEIIYRYVEGIVSLHYKTDVAVKDDPELQTWCREITEIGLQGAQDRGFPVSLQARDQVCHFVTMCIFTCTGQHASVHLGQLDWYSWVPNAPCTMRLPPPTTKDATLETVMATLPNFHQASLQMSITWQLGRRQPVMVAVGQHEEEYFSGPEPKAVLKKFREELAALDKEIEIRNAKLDMPYEYLRPSVVENSVAI
Take B2: in data set [5], the Km was 11 µM.

B3: h15-LOX-1 E356Q (Homo sapiens; E356Q) (protein)
chain: MGLYRIRVSTGASLYAGSNNQVQLWLVGQHGEAALGKRLWPARGKETELKVEVPEYLGPLLFVKLRKRHLLKDDAWFCNWISVQGPGAGDEVRFPCYRWVEGNGVLSLPEGTGRTVGEDPQGLFQKHREEELEERRKLYRWGNWKDGLILNMAGAKLYDLPVDERFLEDKRVDFEVSLAKGLADLAIKDSLNVLTCWKDLDDFNRIFWCGQSKLAERVRDSWKEDALFGYQFLNGANPVVLRRSAHLPARLVFPPGMEELQAQLEKELEGGTLFEADFSLLDGIKANVILCSQQHLAAPLVMLKLQPDGKLLPMVIQLQLPRTGSPPPPLFLPTDPPMAWLLAKCWVRSSDFQLHQLQSHLLRGHLMAEVIVVATMRCLPSIHPIFKLIIPHLRYTLEINVRARTGLVSDMGIFDQIMSTGGGGHVQLLKQAGAFLTYSSFCPPDDLADRGLLGVKSSFYAQDALRLWEIIYRYVEGIVSLHYKTDVAVKDDPELQTWCREITEIGLQGAQDRGFPVSLQARDQVCHFVTMCIFTCTGQHASVHLGQLDWYSWVPNAPCTMRLPPPTTKDATLETVMATLPNFHQASLQMSITWQLGRRQPVMVAVGQHEEEYFSGPEPKAVLKKFREELAALDKEIEIRNAKLDMPYEYLRPSVVENSVAI
For the molecule B3, the Km in data set [6] was 4.1 µM.

B4: h15-LOX-1 F414W (Homo sapiens; F414W) (protein)
chain: MGLYRIRVSTGASLYAGSNNQVQLWLVGQHGEAALGKRLWPARGKETELKVEVPEYLGPLLFVKLRKRHLLKDDAWFCNWISVQGPGAGDEVRFPCYRWVEGNGVLSLPEGTGRTVGEDPQGLFQKHREEELEERRKLYRWGNWKDGLILNMAGAKLYDLPVDERFLEDKRVDFEVSLAKGLADLAIKDSLNVLTCWKDLDDFNRIFWCGQSKLAERVRDSWKEDALFGYQFLNGANPVVLRRSAHLPARLVFPPGMEELQAQLEKELEGGTLFEADFSLLDGIKANVILCSQQHLAAPLVMLKLQPDGKLLPMVIQLQLPRTGSPPPPLFLPTDPPMAWLLAKCWVRSSDFQLHELQSHLLRGHLMAEVIVVATMRCLPSIHPIFKLIIPHLRYTLEINVRARTGLVSDMGIWDQIMSTGGGGHVQLLKQAGAFLTYSSFCPPDDLADRGLLGVKSSFYAQDALRLWEIIYRYVEGIVSLHYKTDVAVKDDPELQTWCREITEIGLQGAQDRGFPVSLQARDQVCHFVTMCIFTCTGQHASVHLGQLDWYSWVPNAPCTMRLPPPTTKDATLETVMATLPNFHQASLQMSITWQLGRRQPVMVAVGQHEEEYFSGPEPKAVLKKFREELAALDKEIEIRNAKLDMPYEYLRPSVVENSVAI
As to B4, the Km in data set [7] was found to be 6.5 µM.

B5: h15-LOX-1 L407A (Homo sapiens; L407A) (protein)
chain: MGLYRIRVSTGASLYAGSNNQVQLWLVGQHGEAALGKRLWPARGKETELKVEVPEYLGPLLFVKLRKRHLLKDDAWFCNWISVQGPGAGDEVRFPCYRWVEGNGVLSLPEGTGRTVGEDPQGLFQKHREEELEERRKLYRWGNWKDGLILNMAGAKLYDLPVDERFLEDKRVDFEVSLAKGLADLAIKDSLNVLTCWKDLDDFNRIFWCGQSKLAERVRDSWKEDALFGYQFLNGANPVVLRRSAHLPARLVFPPGMEELQAQLEKELEGGTLFEADFSLLDGIKANVILCSQQHLAAPLVMLKLQPDGKLLPMVIQLQLPRTGSPPPPLFLPTDPPMAWLLAKCWVRSSDFQLHELQSHLLRGHLMAEVIVVATMRCLPSIHPIFKLIIPHLRYTLEINVRARTGAVSDMGIFDQIMSTGGGGHVQLLKQAGAFLTYSSFCPPDDLADRGLLGVKSSFYAQDALRLWEIIYRYVEGIVSLHYKTDVAVKDDPELQTWCREITEIGLQGAQDRGFPVSLQARDQVCHFVTMCIFTCTGQHASVHLGQLDWYSWVPNAPCTMRLPPPTTKDATLETVMATLPNFHQASLQMSITWQLGRRQPVMVAVGQHEEEYFSGPEPKAVLKKFREELAALDKEIEIRNAKLDMPYEYLRPSVVENSVAI
B5: the Km in data set [8] amounted to 5.5 µM.
